Laboratory results: US11345666B2, “Phenyl and pyridinyl substituted imidazoles as modulators of RORγT” (Janssen Pharmaceutica NV, priority 2018, dated 2022)
Where two headings read alike, the source gives them in different places.

Key:
[1] = molecular target: human RORγt ligand binding domain (RORγt LBD) (Homo sapiens (Human), UniProt P51449); assay: RORγt ThermoFluor assay
How it was run: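 Thermal shift of His-tagged human RORγt LBD (0.065 mg/mL) with 60 μM 1,8-ANS in 100 mM Hepes pH 7.0, 10 mM NaCl, 2.5 mM GSH, 0.002% Tween-20, heated at 1° C./min. Compounds in 1:2 series from a 10 mM DMSO stock; KD estimated from ΔTm using protein unfolding thermodynamics.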

full-length human RORγt = full-length human RORγt (Homo sapiens (Human), UniProt P51449); assay: RORγt (full-length human) reporter assay, conditions A or B; format: cell-based; details: for IC50: HEK293T cells, read-out: RORγt (FL) Reporter Assay A or B, IC50; for inhibition at 6 µM: read-out: RORγt (FL) Reporter Assay A or B, % inhibition @ 6 μM, 6 μM compound concentration; for inhibition at 2 µM: 2 μM compound concentration (**); for inhibition at 0.67 µM: 0.67 μM compound concentration (****)
Sequence of full-length human RORγt (P51449 other isoform, or with tags, fused parts or gaps): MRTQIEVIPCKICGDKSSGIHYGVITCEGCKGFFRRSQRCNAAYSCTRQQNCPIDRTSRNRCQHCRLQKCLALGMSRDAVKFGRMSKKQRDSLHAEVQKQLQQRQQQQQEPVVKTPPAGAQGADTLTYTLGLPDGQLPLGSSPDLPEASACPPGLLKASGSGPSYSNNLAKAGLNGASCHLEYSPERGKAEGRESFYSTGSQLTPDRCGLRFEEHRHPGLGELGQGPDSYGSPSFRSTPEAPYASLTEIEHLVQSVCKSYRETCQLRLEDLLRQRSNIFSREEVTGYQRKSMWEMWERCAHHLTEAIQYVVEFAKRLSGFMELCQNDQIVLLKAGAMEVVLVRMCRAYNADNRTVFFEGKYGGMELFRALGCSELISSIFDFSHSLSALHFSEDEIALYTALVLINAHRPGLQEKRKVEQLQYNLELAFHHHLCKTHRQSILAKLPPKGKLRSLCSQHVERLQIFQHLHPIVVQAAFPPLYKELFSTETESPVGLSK
How it was run: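 HEK293T cells transiently co-transfected (PEI) with GAL4-DBD–RORγt, GAL4-firefly luciferase and CMV-Renilla reporters; condition A 35,000 cells/well, 170.5 ng DNA/well; condition B 8750 cells/well, 42.6 ng DNA/well.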

[2] = read-out: RORγt (FL) Reporter Assay A or B, % inhibition, 3 μM compound concentration (*)
[3] = read-out: RORγt (FL) Reporter Assay A or B, % inhibition

Sequence of human RORγt ligand binding domain (RORγt LBD) (P51449 other isoform, or with tags, fused parts or gaps): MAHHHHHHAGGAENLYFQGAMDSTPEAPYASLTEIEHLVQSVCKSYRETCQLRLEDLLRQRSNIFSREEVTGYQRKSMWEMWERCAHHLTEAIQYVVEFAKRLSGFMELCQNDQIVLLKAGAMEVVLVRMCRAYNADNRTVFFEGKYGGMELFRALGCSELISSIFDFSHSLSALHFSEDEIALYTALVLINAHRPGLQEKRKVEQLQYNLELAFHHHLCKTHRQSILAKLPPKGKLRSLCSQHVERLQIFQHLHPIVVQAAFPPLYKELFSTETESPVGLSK

Compound	Kd [1]	IC50 (full-length human RORγt)	inhibition at 6 µM (full-length human RORγt)	inhibition at 2 µM (full-length human RORγt; [3])	inhibition at 3 µM (full-length human RORγt; 3 μM compound concentration (*), read-out: RORγt (FL) Reporter Assay A or B, % inhibition)	inhibition at 1 µM (full-length human RORγt; 1 μM compound concentration (***), read-out: RORγt (FL) Reporter Assay A or B, % inhibition)	inhibition at 0.67 µM (full-length human RORγt; [3])	inhibition at 3 µM (full-length human RORγt; [2])
Cc1nc(C(=O)NC[C@@H]2CC[C@@H](S(C)(=O)=O)C[C@H]2O)c(C#N)n1-c1ccc(CC(C)(C)C(F)(F)F)cc1OC(F)F (single isomer, unassigned) [Example 57, 5-Cyano-1-(2-(difluoromethoxy)-4-(3,3,3-trifluoro-2,2-dimethylpropyl)phenyl)-N-(((1S*,2R*,4R*)-2-hydroxy-4-(methylsulfonyl)cyclohexyl)methyl)-2-methyl-1H-imidazole-4-carboxamide]	22 nM	40 nM	–	–	–	–	–	98%
CCc1nc(C(=O)NC[C@]2(O)CC[C@@H](S(C)(=O)=O)CC2)c(C(N)=O)n1-c1ccc(CCC(F)(F)F)cc1F [Example 96, 2-Ethyl-1-(2-fluoro-4-(3,3,3-trifluoropropyl)phenyl)-N-(((1s,4s)-1-hydroxy-4-(methylsulfonyl)cyclohexyl)methyl)-1H-imidazole-4,5-dicarboxamide]	450 nM	1400 nM	75%	–	–	–	–	–
CCc1nc(C(=O)NC[C@@H]2CC[C@@H](S(C)(=O)=O)C[C@H]2O)c(Cl)n1-c1ncc(CC(C)(C)C(F)(F)F)cc1OC(F)F (single isomer, unassigned) [Example 59, 5-Chloro-1-(3-(difluoromethoxy)-5-(3,3,3-trifluoro-2,2-dimethylpropyl)pyridin-2-yl)-2-ethyl-N-(((1S*,2R*,4R*)-2-hydroxy-4-(methylsulfonyl)cyclohexyl)methyl)-1H-imidazole-4-carboxamide]	12 nM	65 nM	–	–	–	–	–	104%
CCc1nc(C(=O)NC[C@H]2CC[C@@H](S(C)(=O)=O)CC2)c(Cl)n1-c1ccc(N[C@H](C)C(F)(F)F)cc1OC [Example 4, 5-Chloro-2-ethyl-1-(2-methoxy-4-(((R)-1,1,1-trifluoropropan-2-yl)amino)phenyl)-N-(((1s,4S)-4-(methylsulfonyl)cyclohexyl)methyl)-1H-imidazole-4-carboxamide]	470 nM	350 nM	–	87%	–	–	–	–
CCc1nc(C(=O)NC[C@H]2CC[C@H](S(C)(=O)=O)CC2)c(C)n1-c1ncc(C[C@@H](C)C(F)(F)F)cc1OC(F)F (single isomer, unassigned) [Example 80, 1-(3-(Difluoromethoxy)-5-((R*)-3,3,3-trifluoro-2-methylpropyl)pyridin-2-yl)-2-ethyl-5-methyl-N-(((1r,4R)-4-(methylsulfonyl)cyclohexyl)methyl)-1H-imidazole-4-carboxamide]	58 nM	54 nM	–	–	113%	–	–	–
CCc1nc(C(=O)NC[C@H]2CC[C@H](S(C)(=O)=O)CC2)c(C)n1-c1ncc(C[C@H](C)C(F)(F)F)cc1OC(F)F (single isomer, unassigned) [Example 73, 1-(3-(Difluoromethoxy)-5-((S*)-3,3,3-trifluoro-2-methylpropyl)pyridin-2-yl)-2-ethyl-5-methyl-N-(((1r,4S)-4-(methylsulfonyl)cyclohexyl)methyl)-1H-imidazole-4-carboxamide]	38 nM	110 nM	–	–	–	80%	–	–
CCc1nc(C(=O)NC[C@H]2CC[C@H](S(C)(=O)=O)CC2)c(C#N)n1-c1ccc(CC(C)(C)C(F)(F)F)cc1OC(F)(F)F [Example 113, 5-Cyano-2-ethyl-N-(((1r,4r)-4-(methylsulfonyl)cyclohexyl)methyl)-1-(4-(3,3,3-trifluoro-2,2-dimethylpropyl)-2-(trifluoromethoxy)phenyl)-1H-imidazole-4-carboxamide]	8.3 nM	44 nM	–	88%	–	–	–	–
CCc1nc(C(=O)NC[C@H]2CC[C@H](S(C)(=O)=O)CC2)c(C)n1-c1ncc(CC(C)(C)C(F)(F)F)cc1OC(F)F [Example 49, 1-(3-(Difluoromethoxy)-5-(3,3,3-trifluoro-2,2-dimethylpropyl)pyridin-2-yl)-2-ethyl-5-methyl-N-(((1r,4r)-4-(methylsulfonyl)cyclohexyl)methyl)-1H-imidazole-4-carboxamide]	5.8 nM	14 nM	94%	–	–	–	–	–

Now from value to molecule, other results behind:

Kd [1]	IC50 (full-length human RORγt)	inhibition at 6 µM (full-length human RORγt)	inhibition at 2 µM (full-length human RORγt; [3])	inhibition at 3 µM (full-length human RORγt; 3 μM compound concentration (*), read-out: RORγt (FL) Reporter Assay A or B, % inhibition)	inhibition at 1 µM (full-length human RORγt; 1 μM compound concentration (***), read-out: RORγt (FL) Reporter Assay A or B, % inhibition)	inhibition at 0.67 µM (full-length human RORγt; [3])	Compound	inhibition at 3 µM (full-length human RORγt; [2])
21 nM	140 nM	98%	–	–	–	–	CCc1nc(C(=O)NC[C@]2(O)CC[C@@H](S(C)(=O)=O)CC2)c(C)n1-c1ncc(CC(C)(C)C(F)(F)F)cc1OC [Example 127, 2-Ethyl-N-(((1s,4s)-1-hydroxy-4-(methylsulfonyl)cyclohexyl)methyl)-1-(3-methoxy-5-(3,3,3-trifluoro-2,2-dimethylpropyl)pyridin-2-yl)-5-methyl-1H-imidazole-4-carboxamide]	–
4.4 nM	19 nM	–	–	–	–	97%	CCc1nc(C(=O)NC[C@]2(C#N)CC[C@@H](S(C)(=O)=O)CC2)c(F)n1-c1ccc(CC(C)(C)C(F)(F)F)cc1OC(F)F [Example 38, N-(((1s*,4s*)-1-Cyano-4-(methylsulfonyl)cyclohexyl)methyl)-1-(2-(difluoromethoxy)-4-(3,3,3-trifluoro-2,2-dimethylpropyl)phenyl)-2-ethyl-5-fluoro-1H-imidazole-4-carboxamide]	–
2.2 nM	3.2 nM	–	–	–	–	86%	CCc1nc(C(=O)NC[C@]2(O)CC[C@@H](S(C)(=O)=O)CC2)c(Cl)n1-c1ccc(CC(C)(C)C(F)(F)F)c(OC)c1 [Example 43, 5-Chloro-2-ethyl-N-(((1s,4s)-1-hydroxy-4-(methylsulfonyl)cyclohexyl)methyl)-1-(3-methoxy-4-(3,3,3-trifluoro-2,2-dimethylpropyl)phenyl)-1H-imidazole-4-carboxamide]	–
0.73 nM	3.2 nM	–	105%	–	–	–	C#Cc1c(C(=O)NC[C@]2(O)CC[C@@H](S(C)(=O)=O)CC2)nc(CC)n1-c1ccc(CC(C)(C)C(F)(F)F)cc1OC(F)F [Example 40, 1-(2-(Difluoromethoxy)-4-(3,3,3-trifluoro-2,2-dimethylpropyl)phenyl)-2-ethyl-5-ethynyl-N-(((1s,4s)-1-hydroxy-4-(methylsulfonyl)cyclohexyl)methyl)-1H-imidazole-4-carboxamide]	–
65 nM	540 nM	–	73%	–	–	–	COc1cc(CC(C)(C)C(F)(F)F)ccc1-n1cc(C(=O)NC[C@]2(O)CC[C@@H](S(C)(=O)=O)CC2)nc1C [Example 130, N-(((1s,4s)-1-hydroxy-4-(methylsulfonyl)cyclohexyl)methyl)-1-(2-methoxy-4-(3,3,3-trifluoro-2,2-dimethylpropyl)phenyl)-2-methyl-1H-imidazole-4-carboxamide]	–
2200 nM	2000 nM	35%	–	–	–	–	CCc1nc(C(=O)NC[C@]2(O)CC[C@@H](S(C)(=O)=O)CC2)cn1-c1c(F)cc(CC(C)C(F)(F)F)cc1F (stereo partly drawn) [Example 84, 1-(2,6-Difluoro-4-(3,3,3-trifluoro-2-methylpropyl)phenyl)-2-ethyl-N-(((1s,4s)-1-hydroxy-4-(methylsulfonyl)cyclohexyl)methyl)-1H-imidazole-4-carboxamide]	–
